Measured values from patent US10179777B2, “3-(1H-benzimidazol-2-yl)-1H-pyridin-2-one derivatives” (MERCK PATENT GMBH, priority 2015, dated 2019).
Where a name gives a salt, the structure may show the parent alone.

Tests used:
[1] = target: T1, ALK1 (GST-modified kinase domain ACVRL1 (139-503)) (Homo sapiens, UniProt P37023); assay: ALK1 kinase inhibition assay (33P-ATP filter binding, Reaction Biology); assay type: biochemical; details: casein substrate, 100 μM ATP (Km ATP), 120 min ambient temperature
T1 construct: N-terminally GST-modified kinase domain ACVRL1 (139-503); GST (N)
T1 sequence (P37023 139-503): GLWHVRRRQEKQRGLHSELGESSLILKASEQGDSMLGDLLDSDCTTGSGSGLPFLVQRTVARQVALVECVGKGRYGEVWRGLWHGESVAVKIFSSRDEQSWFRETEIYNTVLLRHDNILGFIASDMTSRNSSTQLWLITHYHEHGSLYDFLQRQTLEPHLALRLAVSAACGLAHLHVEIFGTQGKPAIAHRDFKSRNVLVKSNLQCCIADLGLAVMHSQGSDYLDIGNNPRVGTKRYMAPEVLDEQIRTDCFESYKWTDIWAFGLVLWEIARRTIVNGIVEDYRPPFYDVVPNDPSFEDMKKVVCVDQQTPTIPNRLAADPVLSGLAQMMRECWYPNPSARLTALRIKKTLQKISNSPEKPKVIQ
Method: (§1) The protein sequences of the kinases targeted and accompanying information are described in publically available data base http://www.uniprot.org/uniprot/for ALK1 www.uniprot.org/uniprot/P37023, for ALK2 www.uniprot.org/uniprot/Q04771 and for ALK5 www.uniprot.org/uniprot/P36897. IC50 determination of the novel inhibitors described was performed at Reaction Biology Corp., Malvern, Pa., USA, with assay conditions open to public at www.reactionbiology.com/webapps/site/KinaseDetail.aspx?page=Kinases&id=1, and www.reactionbiology.com/webapps/site/Kinase Assay Protocol.aspx. In addition, they were specified previously in Anastassiadis et al. Nat. Biotechnol. 29(11): 1039-1045. doi:10.1038/nbt.2017.
A1) ALK1 Kinase Inhibition Assay
(§2) was performed with N-terminally GST-modified kinase domain ACVRL1 (139-503) and 20 mg/ml Casein as substrate in reaction buffer of 20 mM HEPES pH 7.5, 10 mM MgCl2, 1 mM EGTA, 0.02% Brij, 0.02 mg/ml BSA, 0.1 mM Na3VO4, 2 mM DTT, 1% DMSO. […] Reactions were carried out at ambient temperature for 120 min, followed by spotting of the reactions onto P81 ion exchange filter paper (Whatman Inc., Picataway, N.J., USA). Unbound phosphate was removed by extensive washing of filters in 0.75% phosphoric acid. After subtraction of background derived from control reactions without enzyme activity, kinase activity data was expressed as the percent remaining kinase activity in test samples compared to vehicle (DMSO) reactions. IC50 values and curve fits were obtained using Prism (GraphPad Software).

[2] = target: T2, ALK2 (GST-modified kinase domain ACVR1(145-509)) (Homo sapiens, UniProt Q04771); assay: ALK2 kinase inhibition assay (33P-ATP filter binding, Reaction Biology); assay type: biochemical; details: casein substrate, 20 μM ATP (Km ATP), 120 min ambient temperature
T2 construct: N-terminally GST-modified kinase domain ACVR1(145-509); GST (N)
T2 sequence (Q04771 145-509): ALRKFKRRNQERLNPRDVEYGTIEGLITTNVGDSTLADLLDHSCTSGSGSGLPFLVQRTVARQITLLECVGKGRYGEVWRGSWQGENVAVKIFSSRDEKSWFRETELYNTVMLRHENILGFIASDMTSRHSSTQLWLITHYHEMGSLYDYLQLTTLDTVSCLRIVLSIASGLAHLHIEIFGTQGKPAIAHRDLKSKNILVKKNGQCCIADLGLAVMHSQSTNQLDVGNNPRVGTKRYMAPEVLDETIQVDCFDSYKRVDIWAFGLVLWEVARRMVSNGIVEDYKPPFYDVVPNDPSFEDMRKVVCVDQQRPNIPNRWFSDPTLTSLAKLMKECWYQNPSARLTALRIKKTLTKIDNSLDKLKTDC
Method: as §1
A2) ALK2 Kinase Inhibition Assay
as §2, with “performed similar to procedure A1” for “performed”, “domain ACVR1(145-509)” for “domain ACVRL1 (139-503)”, “and 1” for “and 20”

[3] = target: T3, ALK5 (TGFβR1; GST-modified TGFBR1 (200-503)) (Homo sapiens, UniProt P36897); assay: ALK5 kinase inhibition assay (33P-ATP filter binding, Reaction Biology); assay type: biochemical; details: casein substrate, 200 μM ATP
T3 construct: Using GST-Modified TGFBR1 (200-503); GST
T3 sequence (P36897 200-503): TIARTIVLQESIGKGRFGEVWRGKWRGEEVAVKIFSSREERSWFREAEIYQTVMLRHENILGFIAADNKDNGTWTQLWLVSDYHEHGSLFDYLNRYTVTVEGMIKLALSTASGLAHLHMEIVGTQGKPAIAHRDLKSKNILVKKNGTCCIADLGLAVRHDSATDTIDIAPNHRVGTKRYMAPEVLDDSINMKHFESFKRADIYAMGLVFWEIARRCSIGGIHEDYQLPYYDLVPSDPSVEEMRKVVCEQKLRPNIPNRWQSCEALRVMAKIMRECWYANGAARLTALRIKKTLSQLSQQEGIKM
Method: as §1
A3) ALK5 Kinase Inhibition Assay Was Performed Similar to Procedures A1 and A2 Using GST-Modified TGFBR1 (200-503) and 1 mg/ml Casein as Substrate at 200 μM ATP.

[4] = test system: ALK1-mediated SMAD1/5 phosphorylation in HUVEC cells; assay: Cell-based immunofluorescence assay for ALK1-mediated SMAD1/5 phosphorylation in HUVEC cells; details: Homo sapiens, 1.5 ng/ml BMP-9 with compound for 2 h, % nuclei with pSMAD1/5 signal, read-out: Smad 1/5 IC50
From the text: In vitro cell-based Immunofluorescence-Assay for identification of inhibitors of ALK1-mediated SMAD1/5 phosphorylation in HUVEC cells:
ALK1 is a type I cell-surface receptor for the TGF-β superfamily of ligands. In adults ALK1 is mainly expressed on activated endothelial cells, e.g. during wound healing or in tumor angiogenesis. BMP9 and BMP10 are high affinity ligands for ALK1.
BMP9 and BMP10 binding leads to the phosphorylation of so-called Smad1 at Ser463 and Ser465 in the carboxy-terminal motif SSXS, as well as Smad5 and Smad8 at their corresponding sites. These phosphorylated Smads dimerize with the coactivating Smad4 and translocate to the nucleus, where they stimulate transcription of target genes.
Primary endothelial cells (HUVEC: Human Umbilical Vein Endothelial Cells; supplier Promocell) are cultivated in the culture medium obtained from Promocell (with supplements corresponding to 5% FCS) for maximum 5 passages, seeded into black 384-well culture plates with clear bottom (3000 cells/well/30 μl), and incubated for 16-24 hours at 37° C., 5% CO2 and 90% rH.
The following day cells were serum-starved for 2-3 h in order to stop TGF-ß-mediated signalling derived from ligands present in FBS. 1.5 ng/ml BMP-9 was than added in parallel with test compounds for 2 h at 37° C., 5% CO2 in order to identify compounds which block functional activity of ALK1 leading to phosphorylation and nuclear translocation of SMAD1/5/8.
After fixation (15 min 4% Formaldehyd in PBS) and permeabilization (10 min 0.2% Triton X-100 in PBS) an indirect immunocytochemical staining is performed with a specific Phospho-Smad1/5 (Ser463/465) antibody (Cell Signaling #9516) and Alexa488-labelled secondary anti-rabbit-IgG-antibody. DNA staining with Propidium Iodide allowed parallel cell counting. Image acquisition and analysis was performed on an MDS ImageXpress Ultra confocal High Content Reader using the image analysis software MetaXpress. Final read-out were % nuclei with a pSMAD1/5 signal above a defined background.
The final DMSO concentration in the assay was 0.5%. DMSO-treated HUVEC cells served as neutral control (=0%) and cells treated with 10 μM of a reference inhibitor described in a patent served as inhibitor control (=−100%). Raw data were normalised to the neutral and inhibitory references. The assay was performed as dose response (10 compound dilutions, 1 nM-30 μM).

Row | Compound | IC50 [1] | IC50 [2] | IC50 [3] | IC50 [4]
1 | CN1CCN(c2ccc3[nH]c(-c4cc(-c5ccc(F)c(CO)c5)c[nH]c4=O)nc3c2)CC1 [Compound A34, 5-(4-Fluoro-3-hydroxymethyl-phenyl)-3-[5-(4-methyl-piperazin-1-yl)-1H-benzimidazol-2-yl]-1H-pyridin-2-one] | 0.03 µM | 0.02 µM | 4.8 µM | 2 µM
2 | O=c1[nH]cc(-c2cccc(CO)c2)cc1-c1nc2cc(N3CCC(O)CC3)ccc2[nH]1 [Compound A12, 5-(3-Hydroxymethyl-phenyl)-3-[5-(4-hydroxy-piperidin-1-yl)-1H-benzimidazol-2-yl]-1H-pyridin-2-one] | 0.028 µM | 0.057 µM | 4.1 µM | 7.2 µM
3 | O=c1[nH]cc(-c2ccc(F)c(CO)c2)cc1-c1nc2cc(N3CCCNCC3)ccc2[nH]1 [Compound A24, 3-(5-[1,4]Diazepan-1-yl-1H-benzimidazol-2-yl)-5-(4-fluoro-3-hydroxymethyl-phenyl)-1H-pyridin-2-one] | 0.033 µM | 0.041 µM | 6.5 µM | –
4 | Cc1[nH]c2ncccc2c1-c1c[nH]c(=O)c(-c2nc3cc(N4CCN(C)CC4)ccc3[nH]2)c1 [Compound A52, 3-[5-(4-Methyl-piperazin-1-yl)-1H-benzimidazol-2-yl]-5-(2-methyl-1H-pyrrolo-[2,3-b]pyridin-3-yl)-1H-pyridin-2-one] | 0.029 µM | 0.017 µM | 0.48 µM | 2.6 µM
5 | O=c1[nH]cc(-c2ccnc3ccoc23)cc1-c1nc2cc(N3CCNCC3)ccc2[nH]1 [Compound A18, 5-Furo[3,2-b]pyridin-7-yl-3-(5-piperazin-1-yl-1H-benzimidazol-2-yl)-1H-pyridin-2-one] | – | – | – | 2 µM
6 | Cc1[nH]c2ncccc2c1-c1c[nH]c(=O)c(-c2nc3cc(N4CCNCC4)ccc3[nH]2)c1 [Compound A45, 5-(2-Methyl-1H-pyrrolo[2,3-b]pyridin-3-yl)-3-(5-piperazin-1-yl-1H-benzimidazol-2-yl)-1H-pyridin-2-one] | – | – | – | 5 µM
7 | COCc1cccc(-c2c[nH]c(=O)c(-c3nc4cc(N5CCNCC5)ccc4[nH]3)c2)c1 [Compound A19, 5-(3-Methoxymethyl-phenyl)-3-(5-piperazin-1-yl-1H-benzimidazol-2-yl)-1H-pyridin-2-one] | – | – | – | 11 µM

Further molecules by falling IC50 [1], results first:

Row | IC50 [1] | IC50 [2] | IC50 [3] | Compound | IC50 [4]
8 | 0.027 µM | 0.025 µM | 3.3 µM | O=c1[nH]cc(-c2cccc(CO)c2)cc1-c1nc2cc(N3CCCNCC3)ccc2[nH]1 [Compound A17, 3-(5-[1,4]Diazepan-1-yl-1H-benzimidazol-2-yl)-5-(3-hydroxymethyl-phenyl)-1H-pyridin-2-one] | 2.5 µM
9 | 0.004 µM | 0.006 µM | 0.14 µM | O=c1[nH]cc(-c2ccnc3[nH]ccc23)cc1-c1nc2cc(N3CCNCC3)ccc2[nH]1 [Compound A44, 3-(5-Piperazin-1-yl-1H-benzimidazol-2-yl)-5-(1H-pyrrolo[2,3-b]pyridin-4-yl)-1H-pyridin-2-one dihydrochloride] | 10 µM
10 | 0.004 µM | 0.03 µM | 2.5 µM | CN1CCN(c2ccc3[nH]c(-c4cc(-c5cccc(CO)c5F)c[nH]c4=O)nc3c2)CC1 [Compound A37, 5-(2-Fluoro-3-hydroxymethyl-phenyl)-3-[5-(4-methyl-piperazin-1-yl)-1H-benzimidazol-2-yl]-1H-pyridin-2-one trifluoroacetate] | –
11 | 0.0037 µM | 0.019 µM | 0.32 µM | O=c1[nH]cc(-c2ccnc3[nH]ccc23)cc1-c1nc2cc(N3CCC(O)CC3)ccc2[nH]1 [Compound A38, 3-[5-(4-Hydroxy-piperidin-1-yl)-1H-benzimidazol-2-yl]-5-(1H-pyrrolo[2,3-b]-pyridin-4-yl)-1H-pyridin-2-one] | –
12 | 0.001 µM | 0.001 µM | 0.97 µM | O=c1[nH]cc(-c2cccc(CO)c2)cc1-c1nc2cc(N3CCNCC3)ccc2[nH]1 [Compound A13, 5-(3-Hydroxymethyl-phenyl)-3-(5-piperazin-1-yl-1H-benzimidazol-2-yl)-1H-pyridin-2-one dihydrochloride] | 0.4 µM
13 | 0.001 µM | 0.038 µM | 0.2 µM | O=c1[nH]cc(-c2ccnc3[nH]ccc23)cc1-c1nc2cc(N3CCCNCC3)ccc2[nH]1 [Compound A47, 3-(5-[1,4]Diazepan-1-yl-1H-benzimidazol-2-yl)-5-(1H-pyrrolo[2,3-b]pyridin-4-yl)-1H-pyridin-2-one] | –
